Assays:
Angiotensin I = assay: Lowering of blood pressure raised by i.v. angiotensin I in the anaesthetised rat; assay type: in vivo, Ratte; conditions: anaesthetised rat, 0,3 mg/kg i.v.; blood pressure raised beforehand by 0,1 mg/kg Angiotensin I i.v.
Experimental: So erzeugt N-[N^α-(3-Phenyl-2-S-mercaptopropanoyl)-S-lysyl]-thiazolidin-4-S-carbonsäure an der narkotisierten Ratte in einer Dosierung von 0,3 mg/kg i.v. eine lang anhaltende Blutdrucksenkung von 60 %, wenn man vorher durch eine i.v.-Gabe von 0,1 mg/kg Angiotensin I den Blutdruck steigert; beim N-[N^a-(3-Phenyl-2-S-mercaptopropanoyl)S-lysyl]-S-prolin liegt der Wert bei gleichem Test bei 57 %.

[1] = molecular target: T1, Angiotensin I Converting Enzym (Oryctolagus cuniculus, UniProt P12822); assay: Inhibition of angiotensin I converting enzyme in vitro; assay type: biochemical; conditions: inhibitor concentration at which the enzyme is 50 % inhibited (Cheung, Cushman method), read-out: Hemmaktivität IC50
T1 sequence (P12822 34-1310): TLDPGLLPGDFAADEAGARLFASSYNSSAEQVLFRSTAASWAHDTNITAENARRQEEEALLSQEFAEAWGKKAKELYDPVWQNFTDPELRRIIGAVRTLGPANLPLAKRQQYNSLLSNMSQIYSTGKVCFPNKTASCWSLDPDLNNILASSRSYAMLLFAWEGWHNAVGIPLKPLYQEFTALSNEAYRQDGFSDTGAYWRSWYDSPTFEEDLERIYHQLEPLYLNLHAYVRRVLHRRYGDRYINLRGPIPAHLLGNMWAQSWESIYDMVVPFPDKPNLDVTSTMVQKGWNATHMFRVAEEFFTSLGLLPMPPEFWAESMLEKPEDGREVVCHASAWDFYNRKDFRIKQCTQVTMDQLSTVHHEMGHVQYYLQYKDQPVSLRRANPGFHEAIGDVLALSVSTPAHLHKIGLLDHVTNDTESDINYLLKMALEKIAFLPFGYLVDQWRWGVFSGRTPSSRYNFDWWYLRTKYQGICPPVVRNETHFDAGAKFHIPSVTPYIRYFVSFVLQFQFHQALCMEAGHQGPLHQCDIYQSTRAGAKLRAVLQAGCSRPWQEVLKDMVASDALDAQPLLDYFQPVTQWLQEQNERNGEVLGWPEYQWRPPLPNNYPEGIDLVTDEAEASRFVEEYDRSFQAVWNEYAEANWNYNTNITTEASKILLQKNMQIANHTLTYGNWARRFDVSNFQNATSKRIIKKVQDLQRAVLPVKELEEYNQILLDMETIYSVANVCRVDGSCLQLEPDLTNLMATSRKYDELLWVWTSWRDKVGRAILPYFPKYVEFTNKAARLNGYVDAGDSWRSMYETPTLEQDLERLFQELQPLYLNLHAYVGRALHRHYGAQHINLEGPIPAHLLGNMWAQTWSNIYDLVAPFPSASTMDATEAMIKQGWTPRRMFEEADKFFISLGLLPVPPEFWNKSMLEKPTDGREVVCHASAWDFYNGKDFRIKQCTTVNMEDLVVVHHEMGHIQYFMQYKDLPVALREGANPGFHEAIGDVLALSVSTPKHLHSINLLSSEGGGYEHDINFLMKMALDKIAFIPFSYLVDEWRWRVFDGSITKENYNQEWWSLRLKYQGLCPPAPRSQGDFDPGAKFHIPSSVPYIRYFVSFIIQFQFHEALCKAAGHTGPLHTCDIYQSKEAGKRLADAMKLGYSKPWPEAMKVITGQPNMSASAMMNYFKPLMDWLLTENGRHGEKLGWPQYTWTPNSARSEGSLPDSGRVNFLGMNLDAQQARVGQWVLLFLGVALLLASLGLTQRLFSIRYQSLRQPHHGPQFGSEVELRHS
Description: N-[N^α-(3-Phenyl-2-S-mercaptopropanoyl)-S-lysyl]-thiazolidin-4-S-carbonsäure zeigt am Angiotensin I Converting Enzym in vitro eine Hemmaktivität IC50= 4,6 . 10^-9 [M]; die IC50 beträgt beim N-[N^αa-(3-Phenpl-2-S-mercaptopropanoyl)-S-lysyl]-S-prolin 2,7 . 10-^8 [M].
Als IC50 wird hierbei diejenige Hemmstoffkonzentration bezeichnet, bei der das Angiotensin I Converting Enzym zu 50 % gehemmt wird (s. H. S. Cheung, D. W. Cushman, Biochem. Biophys. Acta 293, 451 (1973)).

Row | Compound | lang anhaltende Blutdrucksenkung (Angiotensin I) [%] | IC50 [1] [nM]
1 | NCCCC[C@H](NC(=O)[C@@H](S)Cc1ccccc1)C(=O)N1CCC[C@H]1C(=O)O [Beispiel 11] | 57 | –
2 | N-[N^α-(3-Phenyl-2-S-mercaptopropanoyl)-S-lysyl]-thiazolidin-4-S-carbonsäure [Beispiel 3] | 60 | 4.6

— patent EP0176999A2, “Amino acid derivatives, process for their preparation and pharmaceutical compositions” (BOEHRINGER INGELHEIM KG, priority 1984, dated 1986)
